How the values were obtained:
[1] = Pharmacokinetics of PTI and indomethacin, single i.p. dose
[2] = tested on: A549 cells; test: Cell proliferation by BrdU staining; type: cell-based, human; conditions: 60 μM (indomethacin equimolar)
[3] = Stability of PTI in complete media containing 10% serum; conditions: after 24 h
[4] = tested on: A549 cells; test: Cellular uptake of PTI and indomethacin; type: in vitro ADME, human
Method: A549 cells were seeded in […] plates and allowed to grow as a monolayer. […] The incubation was terminated by washing the cell monolayer with complete medium and PBS. The cells were harvested by scraping, extracted by two-fold volume of acetonitrile and centrifuged at 13,000 rpm for 5 min. Drug levels were determined by HPLC.

[5] = Gastrointestinal toxicity in rats
[6] = tested on: A549 xenografts; test: Immunohistochemistry of A549 xenografts (PCNA, TUNEL); type: in vivo, mice
Method: (§1) Staining for PCNA and p-p65 (Ser276) was performed as described. Apoptosis was determined immunohistochemically by the terminal deoxynucleotidyl transferase-mediated deoxyuridine triphosphate-biotin nick end-labeling (TUNEL) assay.

[7] = tested on: PGE2 production; test: PGE2 production by A549 cells; type: cell-based, human
[8] = Cardiotoxicity, heart tissue histology; type: in vivo, mice; conditions: treated for 1.5 months, H&E
Text: Heart tissue sections from mice treated with PTI for 1.5 months were examined and scored histologically, following H&E staining and light microscopy for tissue damage and for the presence of inflammatory cells.

[9] = tested on: HT29; test: Cell viability (MTT), HT29; type: cell-based; conditions: Homo sapiens, HT-29; HT29, 72 h
[10] = tested on: p65 subunit of NF-κB; test: NF-κB activation in A549 xenografts (p-p65 Ser276); type: in vivo, mice; conditions: vs controls
Method: as §1
To further explore the mechanism of action of PTI, we investigated the activation of NF-κB in the A549 lung tumor xenografts from the control and PTI-treated groups, by determining Ser276 phosphorylation of the p65 subunit of NF-κB. A shown in FIG. 28, compared to controls, PTI decreased the levels of p-p65 Ser276 in tumor xenografts by 90.0% (p=0.004).

[11] = tested on: MDA-MB-231; test: Cell viability (MTT), MDA-MB-231; type: cell-based; conditions: Homo sapiens, MDA-MB-231, 72 h
[12] = target: T1, COX-1 (Ovis aries, UniProt P05979); test: COX fluorescent inhibitor screening assay, COX-1; type: biochemical
T1 construct: purchased Cayman Chemical Co
T1 sequence (P05979 25-600): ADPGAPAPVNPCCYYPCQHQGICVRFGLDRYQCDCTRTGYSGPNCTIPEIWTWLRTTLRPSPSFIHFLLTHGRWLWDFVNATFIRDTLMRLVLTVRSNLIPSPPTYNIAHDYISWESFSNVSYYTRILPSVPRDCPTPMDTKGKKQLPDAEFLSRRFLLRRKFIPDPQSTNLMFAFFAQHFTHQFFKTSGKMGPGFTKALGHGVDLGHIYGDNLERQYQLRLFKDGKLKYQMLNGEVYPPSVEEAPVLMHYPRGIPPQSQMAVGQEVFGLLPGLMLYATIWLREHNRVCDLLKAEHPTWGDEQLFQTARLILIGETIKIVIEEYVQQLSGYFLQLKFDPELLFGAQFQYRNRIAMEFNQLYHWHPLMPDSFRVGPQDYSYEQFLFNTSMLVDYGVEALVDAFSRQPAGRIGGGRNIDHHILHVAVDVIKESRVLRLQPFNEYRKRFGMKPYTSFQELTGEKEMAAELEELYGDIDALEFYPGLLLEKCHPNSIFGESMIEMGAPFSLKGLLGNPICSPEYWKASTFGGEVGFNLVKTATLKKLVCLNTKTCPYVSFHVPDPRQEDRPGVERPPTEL

[13] = tested on: Salmonella typhimurium (TA98 and TA100); test: Salmonella plate incorporation mutagenicity assay; conditions: 1.5 to 5000 μg/plate, with or without rat liver S9
[14] = tested on: SW480 colon cancer cells; test: SW480 colon cancer xenografts, prevention protocol, PTI; type: in vivo, mice; conditions: oral gavage; PTI 10 mg/kg/d, indomethacin 2 mg/kg/d; end of study
[15] = tested on: porcine liver esterases; test: Stability of PTI to purified porcine liver esterases; conditions: 4 IU/ml porcine liver esterase, 20 min
[16] = tested on: liver esterases; test: as above; conditions: pig, half-life
[17] = tested on: SW480 cells; test: Cell cycle by PI staining; type: cell-based, human; conditions: 1×IC50 PTI; indomethacin at equimolar concentration; control 56.8
[18] = tested on: A549 human non-small cell lung cancer xenografts; test: A549 lung cancer xenografts, treatment protocol, PTI; type: in vivo, mice; conditions: 2 weeks, vs control
Method: Lung cancer treatment protocol: A549 cells (1.5×106) suspended in 100 μl of PBS (25% Hydrogel) were injected subcutaneously into both the left and right flanks of 5-6-week old female NOD SCID mice (Taconic Farms, Germantown, N.Y.). When the average tumor volume reached 100 mm3, the mice were divided into 3 groups: vehicle, PTI 10 mg/kg/d, and PTI 15 mg/kg/d (n=10/group); treatment lasted 2 weeks. At the end of the treatment, animals were euthanized and the xenografts were harvested.

[19] = tested on: A549 cells; test: Apoptosis by annexin V and PI staining; type: cell-based, human; conditions: 72 h, control 7.5%
Method: After the A549 cells were treated with the test drug in 6-well plates for 72 h, all cell populations (suspended and attached) were collected and stained with annexin V-FITC and propidium iodide (PI) (Invitrogen, Carlsbad, Calif.) for 15 min. Annexin V-FITC and PI fluorescence intensities were analyzed by flow cytometry with a FACScalibur. Annexin V(+)/PI(−) cells are early apoptotic cells; annexin V(+)/PI(+) cells are late apoptotic cells; and annexin V(−)/PI(+) cells are necrotic cells.

[20] = target: COX-2 (Homo sapiens, UniProt P35354); test: COX fluorescent inhibitor screening assay, COX-2; type: biochemical
COX-2, sequence (P35354 18-604): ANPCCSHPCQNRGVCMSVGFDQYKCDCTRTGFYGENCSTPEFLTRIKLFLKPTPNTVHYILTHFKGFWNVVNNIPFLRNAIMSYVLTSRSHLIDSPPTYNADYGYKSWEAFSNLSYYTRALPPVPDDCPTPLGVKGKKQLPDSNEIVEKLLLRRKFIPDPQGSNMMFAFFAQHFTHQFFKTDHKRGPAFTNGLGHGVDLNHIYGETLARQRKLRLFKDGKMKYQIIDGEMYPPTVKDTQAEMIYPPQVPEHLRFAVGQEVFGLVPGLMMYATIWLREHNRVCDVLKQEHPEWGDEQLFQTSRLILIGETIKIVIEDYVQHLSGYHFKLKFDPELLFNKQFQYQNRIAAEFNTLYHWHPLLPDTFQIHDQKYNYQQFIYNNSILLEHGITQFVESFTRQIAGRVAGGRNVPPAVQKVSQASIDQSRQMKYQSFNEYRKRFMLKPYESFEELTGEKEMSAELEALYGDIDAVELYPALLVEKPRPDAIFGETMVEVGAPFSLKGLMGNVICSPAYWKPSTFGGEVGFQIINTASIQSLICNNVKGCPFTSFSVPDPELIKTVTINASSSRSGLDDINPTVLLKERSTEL

[21] = type: in vivo, mice; conditions: 55° C. hot plate, 30 min after single i.p. dose; 100 mg/kg, PI-PEG 1,600 mg/kg; control 1.91 ± 0.46
[22] = tested on: A431 human squamous cell carcinoma cells; type: in vivo, mice; conditions: hydrogel, topical, 2 weeks, estimated 80 mg/kg
[23] = tested on: A549 human non-small lung cancer cells; test: Orthotopic A549 lung tumor model in nude mice; type: in vivo
[24] = tested on: AGS human gastric cancer cells; type: in vivo, mice; conditions: i.p. in corn oil, 3 weeks; PSA-B 200, PSA-G 200, PIA-B 160, PVA-T 100 mg/kg
[25] = Biodistribution of liposomal phospho-ibuprofen amide in mice; type: in vivo
[26] = tested on: skin papillomas; test: DMBA/TPA-induced skin papillomas in FVB mice; type: in vivo
Text: This initiation-promotion protocol leads to papillomas by wk 10, and in a fraction of the mice to SCC by wk 20. […] Criteria similar to those used for human papilloma classification were applied to assess disease progression: hyperplasia→papilloma (Pap 1-3)→microinvasive SCC (M1-3)→invasive SCC. On wk 20, the study was terminated.

[27] = PK study of topical PSG versus oral PS; conditions: mouse, skin, topical or ocular
[28] = Inhalation versus oral delivery of PS; type: in vivo, mice
[29] = tested on: β-catenin signaling; test: β-catenin transcriptional activity (TOPflash) in HEK293T cells; type: cell-based; conditions: 5 μM each; control 1.23±0.11
[30] = Drug levels in papillomas (HPLC); conditions: equal dose of PS orally
[31] = tested on: U87 cells; test: 24-h growth inhibition of U87 glioblastoma cells; type: cell-based; conditions: Homo sapiens, U-87 MG; U87, 24 h
Method: U87 cells were treated with sulindac and ibuprofen as well as with the compounds. U87 is a human primary glioblastoma cell line, formally known as U-87 MG. This cell line has epithelial morphology, and is one of the most frequently used glioblastoma cell lines.

[32] = tested on: U87 glioblastoma cells; test: Apoptosis (annexin V), PV and PGIA; type: cell-based, human; conditions: 24 h; PGIA 200 μM, PV 40 μM, alone or together
Method: Apoptosis: Cells (1.0×10^5 cells/well) were treated with or without PV, PGIA or valproic acid (VPA) for 24 or 48 h. After treatment, cells were trypsinized, stained with Annexin V-FITC (100× dilution, Invitrogen) and propidium iodide (PI) 0.5 μg/ml and the fluorescence intensity was analyzed by FACScaliber.

[33] = 200 mg/kg once a week for 8 weeks

## CCOP(=O)(OCC)OCCc1ccc(OC(=O)Cc2c(C)n(C(=O)c3ccc(Cl)cc3)c3ccc(OC)cc23)cc1 [PTI, [1-(4-Chloro-benzoyl)-5-methoxy-2-methyl-1H-indol-3-yl]-acetic acid 4-[2-(diethoxy-phosphoryloxy)-ethyl]-phenyl ester]
[1]; mouse, in vivo, ip, 100 mg/kg
  Cmax: 46 µM
[1]; single i.p. 100 mg/kg PTI
  plasma detectability of PTI: undetectable at 4 h
  time of maximum concentration of PTI: 2 h
[2]
  decrease of proportion of BrdU positive cells: 96%
[3]
  hydrolyzed: 40%
[4]; 6 h incubation, 50 to 200 μM
  cellular uptake, fold greater than indomethacin: about 200 fold
[4]; 16 h
  cellular uptake, fold greater than indomethacin: about 230 fold
[5]; PTI vs indomethacin
  reduction in gastrointestinal toxicity: 60%
[5]; gavage 4 days, indomethacin 4.75 mg/kg/day, PTI 10 mg/kg/day
  rats that developed ulcers: 40%
[6]; PTI-treated tumors, controls 59.7±7.5%
  cell proliferation (PCNA): 40.2±4.5%
[6]; control 3.3±0.3%
  apoptosis index (TUNEL): 5.8±1.2%
[6]; vs control
  increase of apoptosis index: 75.8%
[7]
  PGE2 levels induced by the calcium ionophore A23187: prevented the increase in PGE2 levels
[8]
  cardiotoxicity: No differences in cardiotoxicity
[9]
  IC50: 87 µM
[10]
  decrease of p-p65 Ser276 levels in tumor xenografts: 90.0%
[11]
  IC50: 23 µM
[12]
  IC50: 905 µM
[13]
  genotoxicity (reverse mutations): no significant genotoxicity
[14]
  reduction of tumor growth: 69%
[15]
  intact PTI remaining: approximately 20%
[16]; 2 IU/ml esterase
  half-life: 5 min
[16]; 4 IU/ml esterase
  half-life: 2 min
[17]
  proportion of cells in G0/G1 phase: 69.7%
[18]; 10 mg/kg/d
  reduction of tumor volume: 68%
[18]; 15 mg/kg/d
  reduction of tumor volume: 91%
[19]; 1.5×IC50
  annexin V+ cells: 12.3%
[19]; 2×IC50
  annexin V+ cells: 71.4%
[20]
  selectivity for COX-2 over COX-1: 12.6 fold
[20]; purified COX-2
  IC50: 71.7 µM

## CCOP(=O)(OCC)OCCCCNC(=O)C(C)c1ccc(CC(C)C)cc1 (stereo not drawn) [Phospho-ibuprofen amide 105, Phosphoric acid diethyl ester 4-[2-(4-isobutyl-phenyl)-propionylamino]-butyl ester]
[21]
  latency values (mean±SD): 3.80 ± 0.46 s
[22]
  tumor growth inhibition: 51.5%
[23]; [33]
  reduction based on lung tumor weight / lung weight: 80%
  reduction of lung cancer based on fluorescence: 95%
[23]; liposomal, I.V.
  lung cancer on fluorescence images of lungs: essentially eliminated lung cancer
[24]
  tumor growth inhibition: 33.8%
[25]; compared with corresponding carboxylic ester compound
  blood and tissue levels of intact compound: significant blood and tissue levels of intact compound
[25]; liposomal, single 200 mg/kg i.v., 1 h
  biodistribution in major organs: preferentially accumulated in lungs

## CCOP(=O)(OCC)OCCCCOC(=O)CC1=C(C)/C(=C/c2ccc([S+](C)[O-])cc2)c2ccc(F)cc21 (stereo not drawn) [PS 118]
[26]; oral
  papilloma multiplicity, oral administration: failed to reduce papilloma multiplicity
[26]; topical
  reduction of tumor burden (average tumor volume/mouse): ~90%
  thickness of the epidermis: partial effect
[26]; topical application
  reduction of tumor number (papillomas/mouse): merely stabilized disease progression
[27]
  AUC(0-t): 684 µM·h
  Cmax: 36.1 µM
  Tmax: 120 min
[21]
  latency values (mean±SD): 4.55 ± 1.00 s
[28]; inhalation and oral
  PS levels in plasma: undetectable
[28]; inhalational 6.5 mg/kg
  level of intact PS in lungs: > 20 nmol/g
[28]; mouse, in vivo, po
  total drug levels in lungs, inhalation vs oral: significantly higher compared to those by oral administration
[28]; oral 150 mg/kg
  level of intact PS in lungs: < 2 nmol/g
[29]
  luciferase/renilla activity: 0.76±0.03
[30]
  level of PS in papillomas: 0.3 ± 0.2 nmol/g
[31]
  IC50: 114 µM

## CCCC(CCC)C(=O)OCCCCOP(=O)(OCC)OCC [PV]
[32]
  fold-increase of annexinV (+) cells: 3.0 fold

Reference: US20130225529A1, “PHOSPHO-ESTER DERIVATIVES AND USES THEREOF” (priority 2012, published 2013)
